± gives the standard deviation of the averaged measurements.

Compound in assay [1]: CC(=O)O[C@H]1C(=O)[C@@]2(C)[C@H]([C@H](OC(=O)c3ccccc3)[C@]3(O)C[C@H](OC(=O)[C@H](O)[C@@H](NC(=O)c4ccccc4)c4ccccc4)C(C)=C1C3(C)C)[C@]1(OC(C)=O)CO[C@@H]1C[C@@H]2O [PACLITAXEL]
Nature of the assay: surviving fraction relative to DMSO-only wells; higher = less growth inhibition. The settings on record: exposure time: 5 days. The essentials:
(§1)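 Each tumour cell line was screened three times, and only lines with replicate Pearson r >0.7 and median Z' >0.3 were kept. Cells in log phase were seeded at 250–500 per well in 384-well plates, left 24 hours, then exposed continuously for five days to inhibitors at 0.5, 1, 5, 10, 50, 100, 500 and 1000 nM. Viability was read as CellTiter-Glo luminescence, with surviving fraction normalised to the median of DMSO-only wells.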

Compound in assay [2]: Cc1ccc(-c2cc(C(F)(F)F)nn2-c2ccc(S(N)(=O)=O)cc2)cc1 [CELECOXIB]
Described as above. The conditions noted are these: exposure time: 5 days. The procedure, abridged:
as §1

As to YAMATO SYNOVIAL, the surviving fraction was 1.04 ± 0.16 in assay [1] (0.5 nM); 0.891 ± 0.036 in assay [1] (1 nM); 0.488 ± 0.069 in assay [1] (5 nM); 0.464 ± 0.043 in assay [1] (10 nM); 0.377 ± 0.012 in assay [1] (50 nM); 0.359 ± 0.021 in assay [1] (100 nM). Moreover, the surviving fraction was found to be 0.346 ± 0.0061 in assay [1] (500 nM); 0.426 ± 0.016 in assay [1] (1000 nM); 1.3 ± 0.17 in assay [2] (0.5 nM); 1.38 ± 0.056 in assay [2] (1 nM); 1.4 ± 0.12 in assay [2] (5 nM); 1.47 ± 0.11 in assay [2] (10 nM). For the same test system, the surviving fraction came to 1.42 ± 0.11 in assay [2] (50 nM), 1.47 ± 0.14 in assay [2] (100 nM), 1.39 ± 0.094 in assay [2] (500 nM) and 1.36 ± 0.21 in assay [2] (1000 nM).

On to MDAMB361 BREAST, for which the surviving fraction turned out to be 0.974 ± 0.073 in assay [1] (0.5 nM); 0.952 ± 0.028 in assay [1] (1 nM); 0.887 ± 0.04 in assay [1] (5 nM); 0.707 ± 0.021 in assay [1] (10 nM); 0.585 ± 0.041 in assay [1] (50 nM); 0.593 ± 0.056 in assay [1] (100 nM). In addition, the surviving fraction is 0.516 ± 0.046 in assay [1] (500 nM); 0.546 ± 0.027 in assay [1] (1000 nM); 0.857 ± 0.13 in assay [2] (0.5 nM); 0.895 ± 0.013 in assay [2] (1 nM); 0.897 ± 0.12 in assay [2] (5 nM); 0.896 ± 0.081 in assay [2] (10 nM). Further, the surviving fraction turned out to be 0.857 ± 0.17 in assay [2] (50 nM), 0.89 ± 0.21 in assay [2] (100 nM), 0.909 ± 0.091 in assay [2] (500 nM) and 0.968 ± 0.17 in assay [2] (1000 nM).

As to KPD BONE, the surviving fraction in assay [1] (0.5 nM) was 0.909 ± 0.093; in assay [1] (1 nM), 0.889 ± 0.062; in assay [1] (5 nM), 0.387 ± 0.029; in assay [1] (10 nM), 0.365 ± 0.044; in assay [1] (50 nM), 0.338 ± 0.015; in assay [1] (100 nM), 0.315 ± 0.025. The surviving fraction in assay [1] (500 nM) came out at 0.327 ± 0.011; in assay [1] (1000 nM), 0.313 ± 0.026; in assay [2] (0.5 nM) it was 1.04 ± 0.1; in assay [2] (1 nM), 1.01 ± 0.054; in assay [2] (5 nM), 1.11 ± 0.065; in assay [2] (10 nM), 1.07 ± 0.029. Further, the surviving fraction came out at 1.05 ± 0.04 in assay [2] (50 nM), 1.07 ± 0.12 in assay [2] (100 nM), 1.05 ± 0.012 in assay [2] (500 nM) and 0.934 ± 0.043 in assay [2] (1000 nM).

Consider CADOES1 SOFT TISSUE, for which the surviving fraction in assay [1] (0.5 nM) was 1 ± 0.062; in assay [1] (1 nM) it was 0.994 ± 0.13; in assay [1] (5 nM), 0.955 ± 0.039; in assay [1] (10 nM) it was 0.846 ± 0.078; in assay [1] (50 nM), 0.38 ± 0.11; in assay [1] (100 nM), 0.188 ± 0.058. Further, the surviving fraction in assay [1] (500 nM) was found to be 0.052 ± 0.0017; in assay [1] (1000 nM), 0.0457 ± 0.0015; in assay [2] (0.5 nM), 0.792 ± 0.11; in assay [2] (1 nM) it was 0.925 ± 0.091; in assay [2] (5 nM), 0.807 ± 0.17; in assay [2] (10 nM), 0.984 ± 0.052. Besides, the surviving fraction in assay [2] (50 nM) is 0.973 ± 0.043; in assay [2] (100 nM), 0.942 ± 0.024; in assay [2] (500 nM), 0.888 ± 0.045; in assay [2] (1000 nM), 0.827 ± 0.097.

Take DU4475 BREAST: the surviving fraction in assay [1] (0.5 nM) came out at 0.975 ± 0.17; in assay [1] (1 nM) it was 0.946 ± 0.26; in assay [1] (5 nM) it was 0.243 ± 0.069; in assay [1] (10 nM), 0.129 ± 0.021; in assay [1] (50 nM), 0.0387 ± 0.013; in assay [1] (100 nM) it was 0.044 ± 0.0089. Besides, the surviving fraction in assay [1] (500 nM) turned out to be 0.0463 ± 0.02; in assay [1] (1000 nM), 0.035 ± 0.0085; in assay [2] (0.5 nM), 0.894 ± 0.08; in assay [2] (1 nM), 0.836 ± 0.06; in assay [2] (5 nM) it was 0.943 ± 0.095; in assay [2] (10 nM), 0.937 ± 0.014. Besides, the surviving fraction was determined as 0.876 ± 0.051 in assay [2] (50 nM), 0.892 ± 0.12 in assay [2] (100 nM), 0.973 ± 0.18 in assay [2] (500 nM) and 0.872 ± 0.015 in assay [2] (1000 nM).

Source of the values: the supplement of paper PMC6045584.
